The assay is described as follows: Inhibition of SMARCA2/SMARCC1/SMARCC2/SMARCB1 (unknown origin) using ATP/nucleosome mix as substrate preincubated for 30 mins followed by substrate addition and measured after 180 mins by ADP-Glo assay. Also noted: species or system Homo sapiens. (In general: ADP-Glo turns the ADP formed in a reaction into a luminescent signal.)

Structures are written as SMILES.

`Cc1ccc(NC(=O)Cc2cc3cc(-c4cccc(N5C[C@@H](C)O[C@@H](C)C5)n4)ccc3cn2)cc1S(C)(=O)=O` gave a 50% inhibitory concentration (IC50) of 0.48 nM.
In the case of `C[C@@H]1CN(c2cccc(-c3ccc4cnc(CC(=O)Nc5cccc(S(=O)(=O)C(F)F)c5)cc4n3)n2)C[C@H](C)O1` it was 0.45 nM; in that of `C[C@@H]1CN(c2cccc(-c3ccc4cnc(CC(=O)N[C@@H]5C[C@H](C)N(S(=O)(=O)C(F)F)C5)cc4c3)n2)C[C@H](C)O1`, 0.33 nM.
For the molecule `C[C@@H]1CN(c2cccc(-c3ccc4cnc(CC(=O)N[C@@H]5CN(S(=O)(=O)C(F)F)CC(F)(F)C5)cc4n3)n2)C[C@H](C)O1`, the half-maximal inhibitory concentration (IC50) came out at 0.43 nM.
`C[C@@H]1CN(c2cccc(-c3ccc4cnc(CC(=O)N[C@@H]5CCN(S(=O)(=O)C(F)F)C5)cc4c3)n2)C[C@H](C)O1` yielded a half-inhibitory concentration (IC50) of 0.53 nM.
Molecule `C[C@@H]1CN(c2cccc(-c3ccc4cnc(CC(=O)N[C@@H]5C[C@@H](F)CN(S(=O)(=O)C(F)F)C5)cc4n3)n2)C[C@H](C)O1` registered an IC50 of 0.5 nM.

The term IC50 denotes the midpoint of a concentration-inhibition curve. Low values mean inhibition by little substance, high ones a need for much substance.

The values are drawn from ChEMBL document CHEMBL6103673, “Novel 1,6-Naphthridine Compounds as SMARCA2 Inhibitors for Treating Non-small Cell Lung Cancer” (ACS Med Chem Lett, 2025).
